Like-named read-outs stand apart in the source and are kept apart here.
Columns and labels:
[1] = system: YFV (17D); type: cell-based, Yellow Fever Virus; conditions: read-out: YFV EC50
[2] = system: ZIKV (MR766); type: cell-based, Zika virus; conditions: read-out: ZIKV EC50
[3] = system: DENV (New Guinea C); type: cell-based, Dengue virus; conditions: read-out: DENV EC50: effective concentration showing 50% inhibition of virus-induced CPE
[4] = target: human N7 (RNMT) MTase (Homo sapiens, UniProt O43148); type: biochemical; conditions: 50 µM
[5] = preliminary minimum tolerated dose; type: in vivo
[6] = target: T1, DENV NS5-MTase (Dengue virus type 3, UniProt Q6YMS4); experiment: radioactive filter-binding 2'-O-MTase assay, DENV; type: biochemical, DENV-3; conditions: 50 µM compound
T1 sequence (Q6YMS4 2492-2753 limits assumed): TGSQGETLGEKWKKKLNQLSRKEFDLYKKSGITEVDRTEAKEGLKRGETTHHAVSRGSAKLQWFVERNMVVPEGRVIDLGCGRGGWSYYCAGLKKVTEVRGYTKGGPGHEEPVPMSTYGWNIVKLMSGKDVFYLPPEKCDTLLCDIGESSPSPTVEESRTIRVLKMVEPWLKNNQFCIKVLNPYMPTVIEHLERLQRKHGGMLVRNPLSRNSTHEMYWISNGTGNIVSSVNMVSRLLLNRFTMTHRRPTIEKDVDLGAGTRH

[7] = system: Ebola (EBOV) virus; conditions: cited from earlier work
[8] = target: ZIKV NS5-MTase (Zika virus, UniProt A0A024B7W1); experiment: radioactive filter-binding 2'-O-MTase assay, ZIKV; type: biochemical; conditions: 50 µM compound
[9] = system: SARS; conditions: read-out: activity against SARS; cited from earlier work
[10] = system: Ebola (EBOV) virus; type: cell-based; conditions: read-out: EC50 against EBOV

Sequence of ZIKV NS5-MTase (A0A024B7W1 2521-2785 limits assumed): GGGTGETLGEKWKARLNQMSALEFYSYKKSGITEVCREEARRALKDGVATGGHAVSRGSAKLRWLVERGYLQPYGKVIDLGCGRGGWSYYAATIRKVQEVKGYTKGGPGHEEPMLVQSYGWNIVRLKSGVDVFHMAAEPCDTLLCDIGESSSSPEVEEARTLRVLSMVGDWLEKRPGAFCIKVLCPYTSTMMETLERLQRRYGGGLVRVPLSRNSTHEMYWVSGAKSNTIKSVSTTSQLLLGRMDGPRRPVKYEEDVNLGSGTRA
Sequence of human N7 (RNMT) MTase (O43148 whole entry): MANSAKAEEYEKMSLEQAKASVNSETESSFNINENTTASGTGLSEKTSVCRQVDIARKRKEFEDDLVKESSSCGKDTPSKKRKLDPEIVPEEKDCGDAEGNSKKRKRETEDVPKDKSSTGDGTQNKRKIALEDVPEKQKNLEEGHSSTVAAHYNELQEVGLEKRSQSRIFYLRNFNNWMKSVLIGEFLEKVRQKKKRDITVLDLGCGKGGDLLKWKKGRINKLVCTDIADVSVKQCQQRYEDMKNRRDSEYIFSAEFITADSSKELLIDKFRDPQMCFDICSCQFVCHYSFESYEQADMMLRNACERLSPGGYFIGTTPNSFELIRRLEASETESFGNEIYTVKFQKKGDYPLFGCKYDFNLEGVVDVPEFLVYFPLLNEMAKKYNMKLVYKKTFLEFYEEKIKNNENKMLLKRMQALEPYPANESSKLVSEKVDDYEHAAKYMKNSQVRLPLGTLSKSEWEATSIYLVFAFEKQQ

In the case of “2-((4-(2,4-dimethoxypyrimidine-5-yl)-1H-imidazol-1-yl) methoxy)ethan-1-ol [Compound 2]”, the EC50 [1] is reported as > 58 µM, the EC50 [2] is reported as > 76 µM and the EC50 [3] is reported as > 50 µM.

With “2-((4-(2-amino-4-methoxypyrimidin-5-yl)-1H-imidazol-1-yl) methoxy)ethan-1-ol [Compound 1]” the “inhibition of human N7 MTase activity” value [4] was “did not exhibit a significant inhibitory effect”, the “minimum tolerated dose (MTD) studies: no toxicity up to” value [5] was ≥ 250 mgs/kg and the “Percent inhibition of DENV MTase” value [6] was “did not exhibit a significant inhibitory effect”. The “activity against Ebola (EBOV) virus” value [7] was “active”, the EC50 ([7]; read-out: EC50 against Ebola (EBOV) virus) was 2.2 ± 0.3 µM and the EC50 [1] was 0.37 µM. For the same substance, the “Percent inhibition of ZIKV MTase” value [8] was “did not exhibit a significant inhibitory effect” and the EC50 [3] was 0.057 µM.

In the case of “2-((4-(2-amino-4-methoxypyrimidin-5-yl)-1H-imidazol-1-yl)methoxy)ethyl acetate [Compound 1-Ac]”, the EC50 [9] is given as 11.9 µM, the “activity against Ebola (EBOV) virus” value [7] is given as “active” and the EC50 [1] is given as > 57 µM. For the same substance, the EC50 [2] was > 100 µM and the EC50 [3] was 6.1 µM.

For “2-((4–2,4-dimethoxypyrimidin-5-yl)-1H-imidazol-1-yl)methoxy) ethyl acetate [Compound 2-Ac]”, the EC50 [10] was 8.2 ± 1.8 µM, the EC50 [1] was > 58 µM and the EC50 [3] was 19 µM.

For “2-ethylbutyl ((2-((4-(2,4-dimethoxypyrimidin-5-yl)-1H-imidazol-1-yl)methoxy)ethoxy)-(phenoxy)-phosphoryl)alaninate [Compound 2-MG]”, the EC50 [1] was > 53 µM, the EC50 [2] was > 56 µM and the EC50 [3] was > 53 µM.

For “2-ethylbutyl((2-((4-(2-amino-4-methoxypyrimidin-5-yl)-1H-imidazol-1-yl)methoxy)-ethoxy)-(phenoxy)phosphoryl)alaninate [Compound 1-MG]”, the “activity against Ebola (EBOV) virus” value [7] is listed as “active”, the EC50 [1] is listed as > 55 µM and the EC50 [2] is listed as > 31 µM. For the same substance, the EC50 [3] was > 57 µM.
